The results in this text go back to patent US9718799B2, “3-aryl-4H-chromene-4-ones as antineoplastic agents for the treatment of cancer” (The University of Kentucky Research Foundation, priority 2015, dated 2017).

The test system of data set [1] is PC3 prostate cancer cells. In words: Cell proliferation assay in prostate cancer PC3 cells. Format: cell-based. The settings on record: for inhibition at 10 µM: Homo sapiens, PC-3. The procedure:
Cell Proliferation Assay:
PC3 prostate cancer cells were cultured in DMEM/F-12 HAM Mixture (Sigma D8437), 10% Fetal Bovine Serum (Atlanta Biological S11150). Before the treatment, 3.5×10^4 cells per well were split into 12-well plates. After 24 h, 10 μM of each compound was added to each well. DMSO was used as a control. This experiment was done in triplicate. Cell viability and number were analyzed using Vi-Cell XR Cell Viability Analyzer (Beckman Coulter).

As usually defined, the Inhibition is the percentage by which the read-out fell short of the control. A higher Inhibition goes with a strong effect. In the case of “3-(4-Methoxyphenyl)-2,11-methyl-6a,7,8,9a-tetrahydro-4H,6H-furo[2,3-b]pyrano[3,2-g]chromen-4-one [Isoflavonoid 25g]”, the “Inhibition at 10 μM (%)” value in data set [1] (Table 3, Diels-Alder adducts, inhibition of proliferation, PC3 cells, 10 μM) is on record as 61 ± 2%. By inhibition is commonly meant the relative decrease from the control value, in per cent. High values mean strong suppression, low ones little suppression. As for `COc1ccccc1-c1coc2cc(OC)c(COC(C)=O)c(OC(C)=O)c2c1=O` [Isoflavonoid 6a, 5-Acetoxy-6-(acetoxymethyl)-7-methoxy-3-(2-methoxyphenyl)-4H-chromen-4-one], at 10 µM the inhibition in data set [1] was 17.1 ± 5.9%. Regarding `COc1ccc(-c2coc3cc(OC)c(COC(C)=O)c(OC(C)=O)c3c2=O)cc1` [Isoflavonoid 6b, 5-Acetoxy-6-(acetoxymethyl)-7-methoxy-3-(4-methoxyphenyl)-4H-chromen-4-one], testing at 10 µM in data set [1] gave an inhibition of 51.7 ± 5.7%. A word on the melting point: it is the temperature, or range, at which the solid turns liquid. `COc1ccc(-c2coc3c(C)c(OC(C)=O)c(COC(C)=O)cc3c2=O)cc1` [Isoflavonoid 6c, [7-(Acetyloxy)-3-(4-methoxyphenyl)-8-methyl-4-oxo-4H-chromen-6-yl]methyl acetate] returned a melting point of 136 to 138 °C. Regarding `COc1ccc(-c2coc3c(COC(C)=O)c(OC)cc(OC(C)=O)c3c2=O)cc1` [Isoflavonoid 7b, 5-Acetoxy-8-(acetoxymethyl)-7-methoxy-3-(4-methoxyphenyl)-4H-chromen-4-one], the inhibition at 10 µM in data set [1] came out at 20.2 ± 2%. Same read-out and setting: in the case of `COc1ccccc1-c1coc2c(COC(C)=O)c(OC(C)=O)ccc2c1=O` [Isoflavonoid 7c, 7-(Acetoxy)-8-(acetoxymethyl)-3-(2-methoxyphenyl)-4H-chromen-4-one] it was 20.6 ± 3.8%. Turning to `COc1ccc(-c2c(C)oc3c(COC(C)=O)c(OC(C)=O)ccc3c2=O)cc1` [Isoflavonoid 7e, 7-(Acetoxy)-8-(acetoxymethyl)-3-(4-methoxyphenyl)-2-methyl-4H-chromen-4-one], the melting point was 142 to 144 °C. The molecule also had an inhibition at 10 µM in data set [1] of 98.2 ± 1.5%.

With `COc1ccccc1-c1coc2cc(OC)c(CO)c(O)c2c1=O` [Isoflavonoid 8a, 5-Hydroxy-6-(hydroxymethyl)-7-methoxy-3-(2-methoxyphenyl)-4H-chromen-4-one], the melting point was in the range of 100 to 101 °C. Besides, the inhibition at 10 µM in data set [1] stood at 14.6 ± 3.2%.

Take `COc1ccc(-c2coc3cc(OC)c(CO)c(O)c3c2=O)cc1` [Isoflavonoid 8b, 5-Hydroxy-6-(hydroxymethyl)-7-methoxy-3-(4-methoxyphenyl)-4H-chromen-4-one]: the melting point lay in the range of 138 to 139 °C. For the same molecule, in data set [1], at 10 µM the inhibition was 0%. `COc1ccc(-c2coc3c(C)c(O)c(CO)cc3c2=O)cc1` [Isoflavonoid 8c, 7-Hydroxy-6-(hydroxymethyl)-3-(4-methoxyphenyl)-8-methyl-4H-chromen-4-one] gave a melting point of 153 to 155 °C. Take `COc1ccc(-c2coc3c(CO)c(OC)cc(O)c3c2=O)cc1` [Isoflavonoid 9b, 5-Hydroxy-8-(hydroxymethyl)-7-methoxy-3-(4-methoxyphenyl)-4H-chromen-4-one]: the melting point was in the range of 139 to 141 °C. In data set [1], at 10 µM the inhibition was 79.5 ± 3.6%.

Molecule `COc1ccccc1-c1coc2c(CO)c(O)ccc2c1=O` [Isoflavonoid 9c, 7-Hydroxy-8-(hydroxymethyl)-3-(2-methoxyphenyl)-4H-chromen-4-one] came in with a melting point of 163 to 165 °C. This molecule also displayed an inhibition at 10 µM in data set [1] of 0%.

In the case of `COc1ccc(-c2coc3c(CO)c(O)ccc3c2=O)cc1` [Isoflavonoid 9d, 7-Hydroxy-8-(hydroxymethyl)-3-(4-methoxyphenyl)-4H-chromen-4-one], the melting point is 150 to 152 °C (dec.). The same molecule gave an inhibition at 10 µM in data set [1] of 99.5 ± 0.2%. `COc1ccc(-c2c(C)oc3c(CO)c(O)ccc3c2=O)cc1` [Isoflavonoid 9e, 7-Hydroxy-8-(hydroxymethyl)-3-(4-methoxyphenyl)-2-methyl-4H-chromen-4-one]: the melting point was 212 to 214 °C (dec.). Besides, the inhibition at 10 µM in data set [1] stood at 99.5 ± 0.5%. The matching figures for `COCc1c(OC)cc2occ(-c3ccccc3OC)c(=O)c2c1O` [Isoflavonoid 10a, 5-Hydroxy-7-methoxy-6-(methoxymethyl)-3-(2-methoxyphenyl)-4H-chromen-4-one]: 123 to 124 °C and 53.4 ± 8%. Consider `COCc1cc2c(=O)c(-c3ccc(OC)cc3)coc2c(C)c1O` [Isoflavonoid 10c, 7-Hydroxy-6-(methoxymethyl)-3-(4-methoxyphenyl)-8-methyl-4H-chromen-4-one], for which the melting point was 143 to 145 °C.

With `COCc1c(O)ccc2c(=O)c(-c3ccc(OC)cc3)c(C)oc12` [Isoflavonoid 11e, 7-Hydroxy-8-(methoxymethyl)-3-(4-methoxyphenyl)-2-methyl-4H-chromen-4-one], the melting point is 215 to 217 °C (dec.). On the same count and under the same terms, as for `COc1ccc(-c2coc3c4c(ccc3c2=O)OC2OCCC2C4)cc1OC` (stereo not drawn) [Isoflavonoid 20b, 3-(3,4-Dimethoxyphenyl)-9,10,10a,11-tetrahydro-4H,7aH-furo[2,3-b]pyrano[2,3-f]chromen-4-one], the figure is 193 to 195 °C. In turn, `O=c1c(-c2ccc3c(c2)OCCO3)coc2c3c(ccc12)OC1OCCC1C3` (stereo not drawn) [Isoflavonoid 20d, 3-(2,3-Dihydro-1,4-benzodioxin-6-yl)-9,10,10a,11-tetrahydro-4H,7aH-furo[2,3-b]pyrano[2,3-f]chromen-4-one] showed a melting point of 188 to 189 °C.

The molecule `Cc1oc2c3c(ccc2c(=O)c1-c1ccccc1)OC1OCCC1C3` (stereo not drawn) [Isoflavonoid 20f, 2-Methyl-3-phenyl-9,10,10a,11-tetrahydro-4H,7aH-furo[2,3-b]pyrano[2,3-f]chromen-4-one] came in with a melting point of 181 to 182 °C. The same measure, in the same setting: in the case of `COc1ccc(-c2c(C)oc3c4c(ccc3c2=O)OC2OCCC2C4)cc1` (stereo not drawn) [Isoflavonoid 20g, 3-(4-Methoxyphenyl)-2-methyl-9,10,10a,11-tetrahydro-4H,7aH-furo[2,3-b]pyrano[2,3-f]chromen-4-one] it was 227 to 229 °C; in that of `COc1ccc(-c2c(C)oc3c4c(ccc3c2=O)OC2OCCC2C4)cc1OC` (stereo not drawn) [Isoflavonoid 20h, 3-(3,4-Dimethoxyphenyl)-2-methyl-9,10,10a,11-tetrahydro-4H,7aH-furo[2,3-b]pyrano[2,3-f]chromen-4-one], 217 to 219 °C. Molecule `Cc1oc2c3c(ccc2c(=O)c1-c1ccc(Cl)cc1)OC1OCCC1C3` (stereo not drawn) [Isoflavonoid 20i, 3-(4-Chlorophenyl)-2-methyl-9,10,10a,11-tetrahydro-4H,7aH-furo[2,3-b]pyrano[2,3-f]chromen-4-one] came in with a melting point of 266 to 268 °C. In turn, `Cc1oc2c3c(ccc2c(=O)c1-c1ccccc1)OC1OCCCC1C3` (stereo not drawn) [Isoflavonoid 21f, 2-Methyl-3-phenyl-10,11,11a,12-tetrahydro-4H,7aH,9H-dipyrano[2,3-b:2′,3′-f]chromen-4-one] gave a melting point of 165 to 167 °C. The same measure, in the same setting: in the case of `COc1ccc(-c2coc3c4c(ccc3c2=O)OC2=C(C4)C(=O)CC(C)(C)C2)cc1` [Isoflavonoid 22a, 3-(4-Methoxyphenyl)-9,9-dimethyl-8,9,10,12-tetrahydro-4H,11H-pyrano[2,3-a]xanthene-4,11-dione] it was 223 to 225 °C.

Regarding `CC1(C)CC(=O)C2=C(C1)Oc1ccc3c(=O)c(-c4ccc5c(c4)OCO5)coc3c1C2` [Isoflavonoid 22c, 3-(1,3-Benzodioxol-5-yl)-9,9-dimethyl-8,9,10,12-tetrahydro-4H,11H-pyrano[2,3-a]xanthene-4,11-dione], the melting point lay within 258 to 260 °C. Turning to `Cc1oc2c3c(ccc2c(=O)c1-c1ccccc1)OC1=C(C3)C(=O)CC(C)(C)C1` [Isoflavonoid 22f, 2,9,9-trimethyl-3-phenyl-8,9,10,12-tetrahydro-4H,11H-pyrano[2,3-a]xanthene-4,11-dione], the melting point was in the range of 265 to 266 °C. On the same count and under the same terms, in the case of `COc1ccc(-c2c(C)oc3c4c(ccc3c2=O)OC2=C(C4)C(=O)CC(C)(C)C2)cc1` [Isoflavonoid 22g, 3-(4-Methoxyphenyl)-2,9,9-trimethyl-8,9,10,12-tetrahydro 4H,11H-pyrano[2,3-a]xanthene-4,11-dione] it was 236 to 237 °C. Still for that read-out and setting: as for `COc1ccc(-c2c(C)oc3c(CC4CCCC4=O)c(O)ccc3c2=O)cc1` (stereo not drawn) [Isoflavonoid 23g, 7-Hydroxy-3-(4-methoxyphenyl)-2-methyl-8-[(2-oxocyclopentyl)methyl]-4H-chromen-4-one], the figure is 210 to 211 °C.

`COc1ccc(-c2c(C)oc3c(CC4CCCC4=O)c(O)ccc3c2=O)cc1OC` (stereo not drawn) [Isoflavonoid 23h, 3-(3,4-Dimethoxyphenyl)-7-hydroxy-2-methyl-8-[(2-oxocyclopentyl)methyl]-4H-chromen-4-one] came in with a melting point of 88 to 90 °C.

Consider `O=c1c(-c2ccc3c(c2)OCO3)coc2c3c(ccc12)OC1(O)CCCCC1C3` (stereo not drawn) [Isoflavonoid 24c, 3-(1,3-Benzodioxol-5-yl)-7a-hydroxy-8,9,10,11,11a,12-hexahydro-4H,7aH-pyrano[2,3-a]xanthen-4-one], for which the melting point is 197 °C. On the same count and under the same terms, as for `COc1ccc(-c2c(C)oc3c4c(ccc3c2=O)OC2(O)CCCCC2C4)cc1OC` (stereo not drawn) [Isoflavonoid 24h, 3-(3,4-Dimethoxyphenyl)-7a-hydroxy-2-methyl-8,9,10,11,11a,12-hexahydro-4H,7aH-pyrano[2,3-a]xanthen-4-one], the figure is 193 to 194 °C. The molecule `COc1ccc(-c2coc3c(C)c4c(cc3c2=O)CC2=C(CC(C)(C)CC2=O)O4)cc1` [Isoflavonoid 26a, 3-(4-Methoxyphenyl)-9,9,12-trimethyl-6,8,9,10-tetrahydro-4H,7H-pyrano[3,2-b]xanthene-4,7-dione] had a melting point of 230 to 232 °C. With `COc1ccc(-c2c(C)oc3c(C)c4c(cc3c2=O)CC2=C(CC(C)(C)CC2=O)O4)cc1` [Isoflavonoid 26g, 3-(4-Methoxyphenyl)-2,9,9,12-tetramethyl-6,8,9,10-tetrahydro-4H,7H-pyrano[3,2-b]xanthene-4,7-dione], the melting point was in the range of 270 to 272 °C.
